One block for each molecule: values may come before it.
Assays:
[1] = molecular target: T1, TIR sweet taste receptor (Homo sapiens, UniProt Q7RTX0+Q8TE23); test: in vitro cell-based assay with cells overexpressing the sweet taste receptor, sweet dose-response; conditions: for EC50: cells overexpressing TIR sweet taste receptor, sweet dose-response curves
T1 construct: expressed in transfected cells
T1 sequence (Q8TE23 20-839): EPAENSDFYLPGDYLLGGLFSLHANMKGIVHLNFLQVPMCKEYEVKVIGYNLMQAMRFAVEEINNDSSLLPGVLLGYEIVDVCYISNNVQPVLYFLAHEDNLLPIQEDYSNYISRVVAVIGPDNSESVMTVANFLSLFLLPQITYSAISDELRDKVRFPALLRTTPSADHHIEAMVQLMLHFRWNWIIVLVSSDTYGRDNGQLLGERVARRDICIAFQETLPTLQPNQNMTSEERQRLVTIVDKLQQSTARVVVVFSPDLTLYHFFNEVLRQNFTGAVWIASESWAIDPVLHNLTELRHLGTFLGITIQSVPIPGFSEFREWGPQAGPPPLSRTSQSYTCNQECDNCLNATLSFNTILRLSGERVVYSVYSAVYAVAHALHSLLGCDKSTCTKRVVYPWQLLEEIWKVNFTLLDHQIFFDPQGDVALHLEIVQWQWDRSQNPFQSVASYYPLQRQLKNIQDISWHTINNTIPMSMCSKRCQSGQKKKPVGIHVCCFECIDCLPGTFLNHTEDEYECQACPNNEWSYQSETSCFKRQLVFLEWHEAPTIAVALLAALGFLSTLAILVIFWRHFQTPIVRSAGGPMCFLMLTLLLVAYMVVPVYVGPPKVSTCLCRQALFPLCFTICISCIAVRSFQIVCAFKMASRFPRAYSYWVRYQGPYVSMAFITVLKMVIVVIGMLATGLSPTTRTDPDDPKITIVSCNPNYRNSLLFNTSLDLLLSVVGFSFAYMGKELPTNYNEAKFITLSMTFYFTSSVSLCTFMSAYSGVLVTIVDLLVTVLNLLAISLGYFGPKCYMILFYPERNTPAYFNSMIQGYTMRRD
T1 sequence (Q7RTX0 21-852): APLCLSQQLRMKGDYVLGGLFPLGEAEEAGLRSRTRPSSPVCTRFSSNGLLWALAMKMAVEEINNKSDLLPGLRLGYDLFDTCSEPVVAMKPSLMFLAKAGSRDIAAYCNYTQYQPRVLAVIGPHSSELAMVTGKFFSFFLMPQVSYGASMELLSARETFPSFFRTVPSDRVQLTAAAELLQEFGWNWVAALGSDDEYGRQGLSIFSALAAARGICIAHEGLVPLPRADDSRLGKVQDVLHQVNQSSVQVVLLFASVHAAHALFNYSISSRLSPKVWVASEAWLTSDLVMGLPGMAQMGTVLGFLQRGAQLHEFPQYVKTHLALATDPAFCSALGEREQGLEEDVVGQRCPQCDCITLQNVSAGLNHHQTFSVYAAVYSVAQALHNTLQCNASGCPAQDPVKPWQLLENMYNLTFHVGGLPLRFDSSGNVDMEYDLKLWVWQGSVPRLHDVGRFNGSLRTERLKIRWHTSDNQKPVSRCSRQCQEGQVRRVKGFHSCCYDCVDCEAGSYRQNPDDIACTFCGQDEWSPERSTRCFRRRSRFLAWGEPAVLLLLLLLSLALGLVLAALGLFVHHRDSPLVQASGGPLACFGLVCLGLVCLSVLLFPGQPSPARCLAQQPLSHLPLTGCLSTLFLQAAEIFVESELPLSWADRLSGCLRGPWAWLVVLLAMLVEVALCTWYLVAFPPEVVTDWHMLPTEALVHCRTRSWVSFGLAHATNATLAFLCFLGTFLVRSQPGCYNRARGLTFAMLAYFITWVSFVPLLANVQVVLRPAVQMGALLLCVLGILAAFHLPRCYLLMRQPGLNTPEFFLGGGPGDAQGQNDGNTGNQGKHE
Description: Each of Compounds 101-106 was synthesized. Thereafter, the compounds were tested in an in vitro cell-based assay having cells that overexpress the TIR sweet taste receptor. The sweet dose-response curves were recorded and the EC50 was determined. Table 2 summarizes calculated EC50 values for certain tested compounds.

[2] = sensory panel paired comparison: sweetness alone versus 1.5 wt % sucrose; assay type: in vivo, human
Description: The test samples were prepared from Compound 101 (4 ppm aqueous solution) and Compound 103 (7 ppm aqueous solution). Each of the test samples was evaluated by a sensory panel for its sweetness relative to 1.5 wt % sucrose solution. The panelists were asked to choose the sweeter sample in a pair of a compound test sample and a 1.5 wt % solution of sucrose. For Compound 101, the taste sample was selected 14 times as sweeter, while the sucrose control was selected 46 times out of total 60 times. For Compound 103, the taste sample was selected 14 times as sweeter, while the sucrose control was selected 55 times out of total 69 times.

[3] = sensory panel: sweetness enhancement of sucrose, rating on a scale of 0 to 10; assay type: in vivo, human; conditions: mean panel score, scale 0 to 10
Description: Two control samples were prepared of 6 wt % sucrose and 7.5 wt % sucrose in Low sodium buffer. Two test samples were prepared: one at 6 wt % sucrose plus 4 ppm of Compound 101, and the other at 6 wt % sucrose plus 7 ppm of Compound 103. Panelists were asked to evaluate the four samples and rate the sweetness on a scale of 0 to 10, with a higher rating indicating greater sweetness.

[4] = pair: Compound 103 7 ppm aqueous solution vs 1.5 wt % sucrose solution, total 69 times
[5] = pair: Compound 101 4 ppm aqueous solution vs 1.5 wt % sucrose solution, total 60 times

Compound: CC(=O)OC1C(=O)c2c(O)cccc2OC1c1ccc(O)cc1 (stereo not drawn) [Compound 106, 5-hydroxy-2-(4-hydroxyphenyl)-4-oxochroman-3-yl acetate]
EC50 [1]: ~45 µM

Compound: OC[C@H]1O[C@@](CO)(O[C@H]2O[C@H](CO)[C@@H](O)[C@H](O)[C@H]2O)[C@@H](O)[C@@H]1O [sucrose, reference compound]
times selected as sweeter [2, 5]: 46 times
times selected as sweeter [2, 4]: 55 times
Sweetness Score ([3]; 6 wt % sucrose alone, low sodium buffer (control)): 6.6
Sweetness Score ([3]; 7.5 wt % sucrose alone, low sodium buffer (control)): 8.6

Compound: CCC(=O)OC1C(=O)c2ccc(O)cc2OC1c1ccc(OC)c(O)c1 (stereo not drawn) [Compound 104, 7-hydroxy-2-(3-hydroxy-4-methoxyphenyl)-4-oxochroman-3-yl propionate]
EC50 [1]: ~10 µM

Further molecules by falling EC50 [1], results first:

EC50 [1]: ~8 µM
Compound: COc1ccc(C2Oc3cc(O)ccc3C(=O)C2OC(C)=O)cc1O (stereo not drawn) [Compound 103, 7-hydroxy-2-(3-hydroxy-4-methoxyphenyl)-4-oxochroman-3-yl acetate]
times selected as sweeter [2, 4]: 14 times
Sweetness Score ([3]; 6 wt % sucrose + 7 ppm compound): 8.8

EC50 [1]: ~5 µM
Compound: CCC(=O)OC1C(=O)c2c(O)cc(O)cc2OC1c1ccc(OC)c(O)c1 (stereo not drawn) [Compound 105, 5,7-dihydroxy-2-(3-hydroxy-4-methoxyphenyl)-4-oxochroman-3-yl propionate]

EC50 [1]: ~2 µM
agonist character ([1]; remark printed beside the EC50): partial agonist
Compound: CCC(=O)OC1C(=O)c2c(O)cccc2OC1c1ccc(OC)c(O)c1 (stereo not drawn) [Compound 102, 5-hydroxy-2-(3-hydroxy-4-methoxy-phenyl)-4-oxochroman-3-yl propionate]

EC50 [1]: ~1 µM
Compound: COc1ccc(C2Oc3cccc(O)c3C(=O)C2OC(C)=O)cc1O (stereo not drawn) [Compound 101, 5-hydroxy-2-(3-hydroxy-4-methoxy-phenyl)-4-oxochroman-3-yl acetate]
times selected as sweeter [2, 5]: 14 times
Sweetness Score ([3]; 6 wt % sucrose + 4 ppm compound): 9.8
